Bounds are passed on as bounds.

Assay [1] addresses C-X-C chemokine receptor type 4 (Homo sapiens, UniProt P61073). In words: Antagonist activity at CXCR4 (unknown origin) expressed in U2OS cells cotransfected with beta-arrestin/TEV protease fusion protein and beta-lactamase assessed as inhibition of SDF1-alpha-induced beta arrestin2 recruitment preincubated for 30 mins followed by SDF1-alpha stimulation and measured after 5 hrs by FRET based fluorescence/Tango assay.

Assay [2] has as its target T1, C-X-C chemokine receptor type 2 (Homo sapiens, UniProt P25025).
T1 sequence (P25025 whole entry): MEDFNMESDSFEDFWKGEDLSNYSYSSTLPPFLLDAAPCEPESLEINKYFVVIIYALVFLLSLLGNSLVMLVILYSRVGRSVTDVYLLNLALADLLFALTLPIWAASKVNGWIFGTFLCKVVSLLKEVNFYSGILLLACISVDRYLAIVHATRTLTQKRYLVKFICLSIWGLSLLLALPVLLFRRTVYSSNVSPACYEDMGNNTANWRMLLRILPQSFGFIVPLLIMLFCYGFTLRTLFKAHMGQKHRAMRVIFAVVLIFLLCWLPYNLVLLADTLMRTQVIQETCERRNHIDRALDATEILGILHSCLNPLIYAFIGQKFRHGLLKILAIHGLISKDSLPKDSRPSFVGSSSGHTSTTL
In words: Antagonist activity at CXCR2 (unknown origin) expressed in U2OS cells cotransfected with beta-arrestin/TEV protease fusion protein and beta-lactamase assessed as inhibition of CXCL8-induced beta arrestin2 recruitment preincubated for 30 mins followed by CXCL8 stimulation and measured after 5 hrs by FRET based fluorescence/Tango assay. The format is cell-based.

Sequence of C-X-C chemokine receptor type 4 (P61073 whole entry, the tested form may be a part): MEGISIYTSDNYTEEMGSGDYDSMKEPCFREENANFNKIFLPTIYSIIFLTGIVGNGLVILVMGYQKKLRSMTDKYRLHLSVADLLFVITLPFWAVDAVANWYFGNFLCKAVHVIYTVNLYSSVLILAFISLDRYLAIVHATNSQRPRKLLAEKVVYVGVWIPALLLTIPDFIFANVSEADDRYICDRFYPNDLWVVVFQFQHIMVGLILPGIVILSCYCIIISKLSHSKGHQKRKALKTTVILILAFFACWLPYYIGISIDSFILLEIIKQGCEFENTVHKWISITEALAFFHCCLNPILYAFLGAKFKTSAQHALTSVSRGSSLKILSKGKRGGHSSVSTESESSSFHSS

The term IC50 denotes the midpoint of a concentration-inhibition curve. As to `COc1ccc(NC(=S)Nc2sc3c(c2C(=O)OC(C)(C)C)CCOC3)cc1OC`, the concentration for half-maximal inhibition (IC50) in assay [1] was over 10 µM; in assay [2], 3.4 µM.
As to `CC(C)(C)OC(=O)c1c(NC(=S)Nc2ccccc2)sc2c1CCNC2`, the results for the IC50 in assay [1] and in assay [2] were over 10 µM and 8.7 µM, respectively.
In the case of `CN1CCc2c(sc(NC(=S)Nc3ccccc3)c2C(=O)OC(C)(C)C)C1`, the IC50 in assay [1] and in assay [2] was over 10 µM each time.
For `CC1CCCc2sc(NC(=S)Nc3ccc(OC(C)(C)C)cc3)c(C(=O)OC(C)(C)C)c21` (stereo unspecified), the IC50 in assay [1] was over 10 µM; in assay [2] it was 6.8 µM.
On the same counts, the results for `CCOC(=O)c1c(NC(=S)NCc2ccccc2)sc2c1C(C)CCC2` (stereo unspecified) are over 20 µM and 6.7 µM.
Consider `CCOC(=O)c1c(NC(=S)Nc2ccc(OC(F)(F)F)cc2)sc2c1C(C)CCC2` (stereo unspecified), for which the IC50 stood at 12.7 µM in assay [1] and 2.2 µM in assay [2].
The like results for `CCOC(=O)c1c(NC(=S)Nc2ccccc2)sc2c1C(C)CCC2` (stereo unspecified) were, in that order, over 10 µM and 6.4 µM.
On to `CC1CCCc2sc(NC(=S)Nc3ccc(Oc4ccccc4)cc3)c(C(=O)OC(C)(C)C)c21` (stereo unspecified), for which the IC50 in assay [1] and in assay [2] was over 10 µM each time.
On to `CC1CCCc2sc(NC(=S)Nc3ccccc3)c(C(=O)NCc3ccccc3)c21` (stereo unspecified), for which the IC50 in assay [1] is over 30 µM; in assay [2] it was 2.5 µM.
As for `CC(C)(C)OC(=O)c1c(NC(=S)Nc2ccccc2)sc2c1CCN(Cc1ccccc1)C2`, the IC50 in assay [1] and in assay [2] was over 10 µM throughout.
Turning to `CCOC(=O)c1c(NC(=S)Nc2ccccc2O)sc2c1C(C)CCC2` (stereo unspecified), the values for the IC50 in assay [1] and in assay [2] were over 10 µM and over 30 µM, respectively.
Consider `CC1CCCc2sc(NC(=S)Nc3ccccc3)c(C(=O)O)c21` (stereo unspecified), for which the figures for the IC50 in assay [1] and in assay [2] were over 10 µM and 6.7 µM, respectively.
On the same counts, the results for `CC1CCCc2sc(NC(=S)Nc3ccccc3)c(C(N)=O)c21` (stereo unspecified) are over 10 µM and over 30 µM.
On the same counts, the results for `CC1CCCc2sc(NC(=S)Nc3ccccc3)c(C(=O)OC(C)(C)C)c21` (stereo unspecified) are 11.9 µM and 2.5 µM.
Consider `CNC(=O)c1c(NC(=S)Nc2ccccc2)sc2c1C(C)CCC2` (stereo unspecified), for which the IC50 in assay [1] and in assay [2] was over 10 µM throughout.
Take `CC1CCCc2sc(NC(=S)Nc3ccc(OC(F)(F)F)cc3)c(C(=O)OC(C)(C)C)c21` (stereo unspecified): the results for the 50% inhibitory concentration (IC50) in assay [1] and in assay [2] were over 10 µM and 10.6 µM, respectively.
The like results for `CC1CCCc2sc(NC(=S)Nc3ccccc3)c(C(=O)Nc3ccccc3)c21` (stereo unspecified) were, in that order, over 10 µM and 2.7 µM.
As for `CCOC(=O)c1c(NC(=S)Nc2ccc(F)cc2)sc2c1C(C)CCC2` (stereo unspecified), the IC50 in assay [1] was found to be 11.7 µM; in assay [2], 2.1 µM.
For the compound `CC(C)(C)OC(=O)c1c(NC(=S)Nc2ccccc2)sc2c1CCOC2`, the half-maximal inhibitory concentration (IC50) in assay [1] was over 30 µM; in assay [2], 2.3 µM.
`CC(C)(C)OC(=O)c1c(NC(=S)Nc2ccccc2)sc2c1COC(C)(C)C2`: the IC50 in assay [1] and in assay [2] was over 10 µM throughout.
As for `CCOC(=O)c1c(NC(=S)Nc2cnccn2)sc2c1C(C)CCC2` (stereo unspecified), the half-maximal inhibitory concentration (IC50) in assay [1] and in assay [2] was over 10 µM in each case.
Regarding `CCOC(=O)c1c(NC(=S)Nc2ccc(C(F)(F)F)cc2)sc2c1C(C)CCC2` (stereo unspecified), the IC50 in assay [1] was 14.6 µM; in assay [2], 2 µM.
For the compound `CCOC(=O)c1c(NC(=S)Nc2ccc(N)cc2)sc2c1C(C)CCC2` (stereo unspecified), the IC50 is over 10 µM in assay [1] and over 30 µM in assay [2].
In the case of `CC(C)(C)OC(=O)c1c(NC(=S)Nc2ccccc2)sc2c1CCCC2`, the figures for the IC50 in assay [1] and in assay [2] were over 10 µM and 1.8 µM, respectively.
`CCOC(=O)c1c(NC(=S)NC(=O)c2ccccc2)sc2c1C(C)CCC2` (stereo unspecified): the IC50 in assay [1] and in assay [2] was over 10 µM throughout.
Turning to `CC(C)OC(=O)c1c(NC(=S)Nc2ccccc2)sc2c1C(C)CCC2` (stereo unspecified), the concentration for half-maximal inhibition (IC50) in assay [1] is 9.3 µM; in assay [2] it was 2.7 µM.
With `C[C@H](NC(=S)Nc1sc2c(c1C(=O)OC(C)(C)C)CCOC2)c1ccccc1`, the results for the IC50 in assay [1] and in assay [2] were over 30 µM and 2.4 µM, respectively.
On the same counts, the results for `CCOC(=O)c1c(NC(=S)Nc2ccc(N(C)C)cc2)sc2c1C(C)CCC2` (stereo unspecified) are over 10 µM and 3.9 µM.
For `CCOC(=O)c1c(NC(=S)Nc2ccc(C(C)(C)C)cc2)sc2c1C(C)CCC2` (stereo unspecified), the IC50 in assay [1] was over 10 µM; in assay [2], 7 µM.
`CCOC(=O)NC(=S)Nc1sc2c(c1C(=O)OCC)C(C)CCC2` (stereo unspecified): the figures for the half-maximal inhibitory concentration (IC50) in assay [1] and in assay [2] were over 10 µM and 8.7 µM, respectively.
The like results for `COc1cccc(NC(=S)Nc2sc3c(c2C(=O)OC(C)(C)C)C(C)CCC3)c1` (stereo unspecified) were, in that order, over 10 µM and 2.7 µM.
`CC(C)(C)OC(=O)c1c(NC(=S)Nc2ccc(OC(F)(F)F)cc2)sc2c1CCOC2`: the IC50 is over 30 µM in assay [1] and 1.6 µM in assay [2].
Take `CCOC(=O)c1c(NC(=S)Nc2cccc(OC)c2)sc2c1C(C)CCC2` (stereo unspecified): the IC50 in assay [1] was 8.9 µM; in assay [2], 3 µM.
Consider `CCOC(=O)c1c(NC(=S)Nc2ccccc2F)sc2c1C(C)CCC2` (stereo unspecified), for which the results for the IC50 in assay [1] and in assay [2] were 12 µM and 7.5 µM, respectively.
`COc1ccc(NC(=S)Nc2sc3c(c2C(=O)OC(C)(C)C)C(C)CCC3)cc1OC` (stereo unspecified): the IC50 in assay [1] was over 10 µM; in assay [2] it was 5.7 µM.
Take `CC1CCCc2sc(NC(=S)Nc3ccc(N4CCN(C)CC4)cc3)c(C(=O)OC(C)(C)C)c21` (stereo unspecified): the IC50 in assay [1] and in assay [2] was over 10 µM each time.
Regarding `CCOC(=O)c1c(NC(=S)Nc2ccc(OC)c(OC)c2)sc2c1C(C)CCC2` (stereo unspecified), the figures for the IC50 in assay [1] and in assay [2] were over 10 µM and 7.7 µM, respectively.
`CCOC(=O)c1c(NC(=S)Nc2ccc(OC)cc2)sc2c1C(C)CCC2` (stereo unspecified): the IC50 in assay [1] was 11.5 µM; in assay [2], 4.4 µM.
Consider `O=C(Nc1ccccc1)c1c(NC(=S)Nc2ccc(F)cc2)sc2c1CCOC2`, for which the IC50 in assay [1] and in assay [2] was over 10 µM each time.
Regarding `CCOC(=O)c1c(NC(=S)Nc2ccc3c(c2)OC(F)(F)O3)sc2c1C(C)CCC2` (stereo unspecified), the IC50 is 26.7 µM in assay [1] and 1.9 µM in assay [2].
Consider `CC1CCCc2sc(NC(=S)Nc3ccc4c(c3)OC(F)(F)O4)c(C(=O)OC(C)(C)C)c21` (stereo unspecified), for which the concentration for half-maximal inhibition (IC50) in assay [1] and in assay [2] was over 10 µM throughout.
As to `CC(C)(C)OC(=O)c1c(NC(=S)Nc2ccccc2)sc2c1CCCO2`, the IC50 in assay [1] is over 10 µM; in assay [2] it was 4.1 µM.
On the same counts, the results for `CCOC(=O)c1c(NC(=S)Nc2ccc(O)cc2)sc2c1C(C)CCC2` (stereo unspecified) are 11.7 µM and over 30 µM.

(Values after ChEMBL document CHEMBL4765436, “Discovery, structure-activity relationship study and biological evaluation of 2-thioureidothiophene-3-carboxylates as a novel class of C-X-C chemokine receptor 2 (CXCR2) antagonists” (Eur J Med Chem, 2020).)
